Assay results taken from publication PMC10229121, “An acetylation-mediated chromatin switch governs H3K4 methylation read-write capability” (eLife, 2023).
Entries after “also recorded” stand apart in the source; their conditions may differ.

Tested on: H3K4 methylation and H3 acetylation in MCF-7 breast cancer cells
Assay: Middle-down mass spectrometry of histone H3 from MCF-7 cells ± KDAC inhibition (H3K4 methylation and H3 acetylation)
Type: cell-based
Details: for 0ac state, percent of total H3 / 1ac state, percent of total H3 / 2ac state, percent of total H3 / 3ac state, percent of total H3 / 4ac state, percent of total H3 / 5ac state, percent of total H3: MCF-7, 5 mM butyrate 1H; for percent H3K4me3: sheet percentsk4me3
Procedure: MCF-7 breast cancer cells (ATCC HTB-22) were grown in MEM (Gibco) supplemented with 10% fetal bovine serum (VWR), 100 I.U. penicillin, 100 µg/mL streptomycin (Corning), 0.01 mg/mL human recombinant insulin (Gibco), and 5 µg/mL plasmocin (Invivogen) at 37 °C and 5% CO2. HEK-293 (ATCC CRL-1573) was grown in DMEM (Gibco) supplemented with 10% fetal bovine serum (Corning), 100 I.U. penicillin, and 100 µg/mL streptomycin (Gibco) at 37 °C and 5% CO2. Both cell lines were authenticated via STR profiling and confirmed to be Mycoplasma negative.
For mass spectrometric (MS) analysis ± KDAC inhibition, cells were cultured in 150 mm dishes to ~80% confluence and treated with 5 mM sodium butyrate (or equivalent volume of water) in triplicate for 0, 10, 20, 30, 60, 120 min. […] Histones were acid extracted after nuclei isolation as described ([Holt et al., 2021]). Isolated histones were resuspended in 85 µL 5% acetonitrile, 0.2% trifluoroacetic acid (TFA), and resolved by offline high-performance liquid chromatography (HPLC) as described ([Holt et al., 2021]). […] After chromatographic separation and fraction collection, histone H3.1 was selected, diluted in 100 mM ammonium acetate (pH = 4), and digested with Glu-C protease (Roche) at 10:1 protein:enzyme for 1 hr at room temperature prior to mass spectrometric analysis.
The digested samples were diluted to 2 µg/µL. Online HPLC was performed on a U3000 RSLC nano Pro-flow system using a C3 column (Zorbax 300 SB-C3, 5 µm; Agilent). Samples were maintained at 4 °C and 1 µL injected for each analysis using a microliter pickup. […] The column eluant was introduced into an Orbitrap Fusion Lumos mass spectrometer (Thermo Fisher) by nano-electrospray ionization. A static spray voltage of 1900 V and an ion transfer tube temperature of 320 °C were set for the source.
A Fusion Lumos mass spectrometer was used to generate MS data. The 9th charge state of histone H3 was targeted for analysis. MS1 analysis was acquired in the orbitrap with a normal mass range and a 60 k resolution setting in positive ion mode. An Automatic Gain Control (AGC) target of 5.0E5 with a 200 ms maximum injection time, three microscans, and a scan range of 585–640 m/z was used to identify desired ions for fragmentation. MS2 acquisition was performed in both orbitrap and ion trap modes. Both modes used electron transfer dissociation (ETD), a reaction time of 18ms, and an injection time of 200 ms. A normal scan range was used for the orbitrap mode with a resolution setting of 30 k and an AGC target of 5.0E5, with two micro scans. A narrow scan range of 470–530 m/z, targeting ions indicative of K4 modification states, was used for the ion trap mode MS2 with an ACG target of 3.0E4, quadrupole isolation, maximum injection time of 100ms, and eight microscans.
These MS methods were used with two technical replicates per biological replicate (n=3). An MS ion trap mode with a targeted mass list was used to increase sensitivity to identify known low-abundance K4me3-containing proteoforms. The ion trap MS2 spectra were averaged for each H3 acetyl state based on known retention times, and the intensities of ions indicative of the K4 methylation states were manually recorded. Retention times for each acetyl state were approximated as 0ac 35–40 min, 1ac 45–55 min, 2ac 55–60 min, 3ac 62–68 min, 4ac 69–73 min, and 5ac 74–78 min. Precursor mass was used as an additional confirmation and filter of the correct acetyl state. For scans yielding low signal and high noise (i.e. 5ac at 0 min butyrate treatment), data were manually curated before averaging. Within acetyl states, the relative proportion of fragment ions for unmodified, mono-, di-, and tri-methylation of the H3K4 ion at respective m/z of 474, 488, 502, and 516 were recorded per MS run. Values were averaged across replicates of the same conditions and normalized to one hundred percent. A two-tailed t-test was used for significance. […]

CCCC(=O)O [sodium butyrate]
0ac state, percent of total H3 (AVG n=3): 38.12%
1ac state, percent of total H3 (AVG n=3): 25.98%
2ac state, percent of total H3 (AVG n=3): 20.63%
3ac state, percent of total H3 (AVG n=3): 12.03%
4ac state, percent of total H3 (AVG n=3): 2.14%
5ac state, percent of total H3 (AVG n=3): 1.10%
0ac state, percent of total H3 (normalized, replicate 1): 53.59%
1ac state, percent of total H3 (normalized, replicate 1): 15.56%
2ac state, percent of total H3 (normalized, replicate 1): 13.01%
3ac state, percent of total H3 (normalized, replicate 1): 15.85%
4ac state, percent of total H3 (normalized, replicate 1): 1.53%
5ac state, percent of total H3 (normalized, replicate 1): 0.47%
0ac state, percent of total H3 (normalized, replicate 2): 28.79%
1ac state, percent of total H3 (normalized, replicate 2): 37.29%
2ac state, percent of total H3 (normalized, replicate 2): 21.30%
3ac state, percent of total H3 (normalized, replicate 2): 8.21%
4ac state, percent of total H3 (normalized, replicate 2): 3.37%
5ac state, percent of total H3 (normalized, replicate 2): 1.05%
0ac state, percent of total H3 (normalized, replicate 3): 31.98%
1ac state, percent of total H3 (normalized, replicate 3): 25.08%
2ac state, percent of total H3 (normalized, replicate 3): 27.59%
3ac state, percent of total H3 (normalized, replicate 3): 12.04%
4ac state, percent of total H3 (normalized, replicate 3): 1.54%
5ac state, percent of total H3 (normalized, replicate 3): 1.77%
percent H3K4me3 (MCF-7, 5 mM butyrate 10M, 0ac, AVG n=3): 1.08%
percent H3K4me3 (MCF-7, 5 mM butyrate 10M, 1ac, AVG n=3): 0.40%
percent H3K4me3 (MCF-7, 5 mM butyrate 10M, 2ac, AVG n=3): 1.95%
percent H3K4me3 (MCF-7, 5 mM butyrate 10M, 3ac, AVG n=3): 2.18%
percent H3K4me3 (MCF-7, 5 mM butyrate 10M, 4ac, AVG n=3): 1.30%
percent H3K4me3 (MCF-7, 5 mM butyrate 10M, 5ac, AVG n=3): 0.42%
percent H3K4me3 (MCF-7, 5 mM butyrate 30M, 0ac, AVG n=3): 1.93%
percent H3K4me3 (MCF-7, 5 mM butyrate 30M, 1ac, AVG n=3): 1.29%
percent H3K4me3 (MCF-7, 5 mM butyrate 30M, 2ac, AVG n=3): 1.93%
percent H3K4me3 (MCF-7, 5 mM butyrate 30M, 3ac, AVG n=3): 1.64%
percent H3K4me3 (MCF-7, 5 mM butyrate 30M, 4ac, AVG n=3): 2.14%
percent H3K4me3 (MCF-7, 5 mM butyrate 30M, 5ac, AVG n=3): 4.20%
percent H3K4me3 (MCF-7, 5 mM butyrate 60M, 1ac, AVG n=3): 1.27%
percent H3K4me3 (MCF-7, 5 mM butyrate 60M, 2ac, AVG n=3): 1.44%
percent H3K4me3 (MCF-7, 5 mM butyrate 60M, 3ac, AVG n=3): 1.39%
percent H3K4me3 (MCF-7, 5 mM butyrate 120M, 0ac, AVG n=3): 1.23%
percent H3K4me3 (MCF-7, 5 mM butyrate 120M, 1ac, AVG n=3): 1.92%
percent H3K4me3 (MCF-7, 5 mM butyrate 120M, 2ac, AVG n=3): 2.41%
percent H3K4me3 (MCF-7, 5 mM butyrate 120M, 3ac, AVG n=3): 1.99%
percent H3K4me3 (MCF-7, 5 mM butyrate 120M, 4ac, AVG n=3): 4.58%
percent H3K4me3 (MCF-7, 5 mM butyrate 120M, 5ac, AVG n=3): 21.35%
H3K4 methylation, in words (MCF-7, 5 mM sodium butyrate): increase in all H3K4 methyl states relative to the unmodified state concomitant with increasing states of H3 acetylation; also recorded: H3K4me3 levels most dramatically increased in tandem with the 5ac H3 state; also recorded: H3K4 methylation increased for the most highly acetylated proteoforms
H3 poly-acetylation, in words (MCF-7, 5 mM sodium butyrate): H3 poly-acetylation rapidly increased
